The test system of data set [1] is PrP^Sc levels in ScN2a-cl3 cells. Description: cells. The format is cell-based, mouse.
The nature of data set [2]: in vivo. Particulars: mouse, po, 10 mg/kg.
Data set [3] in a line: in vitro. Particulars: mouse, microsomes.
For data set [4] the following is noted: mouse, microsomes.
For data set [5] the following is noted: mouse, in vivo; cited from earlier work.
The mark [6] stands for this setting: Mus musculus, read-out: EC50 ± SEM(nM).

Each structure is given as a SMILES string. Where a name gives a salt, the structure may show the parent alone. Read-outs that look alike come from different tables or passages of the source.

A word on the EC50: it is the concentration giving half of the maximal effect. `O=C(Nc1nc(-c2ccc(-c3ccncc3)cc2)cs1)C1CC1` [Compound 39, Cyclopropanecarboxylic acid [4-(4-pyridin-4-yl-phenyl)-thiazol-2-yl]-amide trifluoroacetic acid salt]: the EC50 in data set [1] (setting [6]) is 173 ± 16 nM.

In the case of `Cc1cccc(Nc2nc(-c3ccc(-c4ccnn4C)cc3)cs2)n1` [Compound 18, {4-[4-(2-Methyl-2H-pyrazol-3-yl)-phenyl]-thiazol-2-yl}-(6-methyl-pyridin-2-yl)-amine], the EC50 in data set [1] (setting [6]) amounted to 89 ± 35 nM.

For `CN(C)c1ccc(-c2ccc(-c3csc(NC(=O)C4CC4)n3)cc2)cn1` [Compound 41, Cyclopropanecarboxylic acid {4-[4-(6-dimethylamino-pyridin-3-yl)-phenyl]-thiazol-2-yl}-amide], the EC50 in data set [1] (setting [6]) worked out at 109 ± 12 nM.

Consider `Cc1cccc(Nc2nc(-c3ccc(-c4ccncc4C)cc3)cs2)n1` [Compound 14, (6-Methyl-pyridin-2-yl)-{4-[4-(3-methyl-pyridin-4-yl)-phenyl]-thiazol-2-yl}-amine trifluoro acetic acid salt], for which the EC50 in data set [1] (setting [6]) is 400 ± 61 nM.

With `Cc1cccc(Nc2nc(-c3ccc(-c4ccc(OC(C)C)nc4)cc3)cs2)n1` [Compound 29, 4-(4-(6-Isopropoxypyridin-3-yl)phenyl)-N-(6-methylpyridin-2-yl)thiazol-2-amine], the EC50 in data set [1] (setting [6]) was 5860 ± 327 nM.

A word on the Cmax: it is the peak of the concentration-time curve. Broadly, the AUC is the area under the concentration-time curve, a measure of exposure. The low end stands for less exposure, the high end for more exposure. Consider `COCCOc1cc(-c2ccc(-c3csc(Nc4cccc(C)n4)n3)cc2)ccn1` [Compound 26, 4-(4-(2-(2-methoxyethoxy)pyridin-4-yl)phenyl)-N-(6-methylpyridin-2-yl)thiazol-2-amine], for which the Cmax in data set [2] was 330 ± 160 nM. The same compound displayed an area under the curve (AUC) in data set [2] (AUC (μM *h) Brain) of 1.04 ± 0.13 µM·h. The EC50 in data set [1] (setting [6]) is 153 ± 36 nM.

With `COCCOc1cccc(Nc2nc(-c3ccc(-c4ccccc4)cc3)cs2)n1` [Compound 22, 4-([1,1′-Biphenyl]-4-yl)-N-(6-(2-methoxyethoxy)pyridin-2-yl)thiazol-2-amine], the “antiprion activity (in words)” value in data set [1] was “inactive”. Also, the EC50 in data set [1] (setting [6]) is more than 10000 nM.

What is called half-life is the time needed for the level to fall by half in the phase considered. Low values mean rapid decline, high ones slow decline. `Cc1cccc(Nc2nc(-c3ccc(-c4ccc[n+]([O-])c4)cc3)cs2)n1` [Compound 16, 3-(4-(2-((6-Methylpyridin-2-yl)amino)thiazol-4-yl)phenyl)pyridine 1-oxide] returned a half-life in data set [3] of more than 60 min. Besides, the Cmax in data set [2] stood at 900 ± 240 nM. Further, the AUC turned out to be 3.85 ± 0.52 µM·h in data set [2] (AUC (μM *h) Brain) and 11.5 ± 0.71 µM·h in data set [2] (AUC (μM *h) Plasma). The EC50 in data set [1] (setting [6]) was determined as 203 ± 10 nM.

Compound `Cc1cccc(Nc2nc(-c3ccc(-c4ccncc4)cc3)cs2)n1` [Compound 12, (6-Methyl-pyridin-2-yl)-[4-(4-pyridin-4-yl-phenyl)-thiazol-2-yl]-amine] showed a half-life in data set [3] of more than 60 min. Besides, the “fold greater antiprion potency than 1” value in data set [1] is reported as more than 10 fold. Also, in data set [1] (setting [6]), the EC50 came to 87 ± 43 nM.

With `CN1CCN(c2ccc(-c3ccc(-c4csc(NC(=O)C5CC5)n4)cc3)cn2)CC1` [Compound 47, N-(4-(4-(6-(4-methylpiperazin-1-yl)pyridin-3-yl)pheyl)thiazol-2-yl)cyclopropanecarboxamide], in data set [4], the “T1/2” value was found to be 2.5 min. In addition, the EC50 in data set [1] (read-out: EC50 ± SEM) turned out to be 70 ± 23 nM.

As to `COCCOc1ccc(-c2ccc(-c3csc(NC(=O)C4CC4)n3)cc2)cn1` [Compound 46, N-(4-(4-(6-(2-methoxyethoxy)pyridin-3-yl)phenyl)thiazol-2-yl)cyclopropanecarboxamide], in data set [3], the half-life was 55 min. This compound had a Cmax in data set [2] of 150 ± 10 nM. Moreover, the AUC in data set [2] (AUC (μM *h) Brain) amounted to 0.32 µM·h; in data set [2] (AUC (μM *h) Plasma), 0.26 ± 0.01 µM·h. For the same compound, the EC50 in data set [1] (setting [6]) was found to be 118 ± 11 nM.

For the compound `Cc1cccc(Nc2nc(-c3ccc(-c4ccnc(N(C)C)c4)cc3)cs2)n1` [Compound 30, 4-(4-(2-(dimethylamino)pyridin-4-yl)phenyl)-N-(6-methylpyridin-2-yl)thiazol-2-amine], in data set [1] (setting [6]), the EC50 amounted to 123 ± 35 nM.

In data set [3], `CN1CCN(c2cc(-c3ccc(-c4csc(NC(=O)C5CC5)n4)cc3)ccn2)CC1` [Compound 45, N-(4-(4-(2-(4-methylpiperazin-1-yl)pyridin-4-yl)phenyl)thiazol-2-yl)cyclopropanecarboxamide] gave a half-life of 4.4 min. The same compound registered a Cmax in data set [2] of 250 ± 110 nM. Further, the results for the AUC in data set [2] (AUC (μM *h) Brain) and in data set [2] (AUC (μM *h) Plasma) were 1.29 ± 0.02 µM·h and 0.76 ± 0.01 µM·h, respectively. The EC50 in data set [1] (setting [6]) is 682 ± 100 nM.

Consider `Cc1cccc(Nc2nc(-c3ccc(-c4ccc(N(C)C)nc4)cc3)cs2)n1` [Compound 31, 4-(4-(6-(Dimethylamino)pyridin-3-yl)phenyl)-N-(6-methylpyridin-2-yl)thiazol-2-amine], for which, in data set [1] (setting [6]), the EC50 turned out to be 69 ± 21 nM.

Consider `Cc1cccc(Nc2nc(-c3ccc(-c4c(C)noc4C)cc3)cs2)n1` [Compound 19, {4-[4-(3,5-Dimethyl-isoxazol-4-yl)-phenyl]-thiazol-2-yl}-(6-methyl-pyridin-2-yl)-amine], for which the EC50 in data set [1] (setting [6]) came out at 2130 ± 226 nM.

With `Cc1cccc(Nc2nc(-c3ccc(N4CCOCC4)cc3)cs2)n1` [Compound 21, (6-Methyl-pyridin-2-yl)-[4-(4-morpholin-4-yl-phenyl)-thiazol-2-yl]-amine], the EC50 in data set [1] (setting [6]) came to 51 ± 7 nM.

Regarding `Cc1cccc(Nc2nc(-c3ccc(N4CCN(C)CC4)cc3)cs2)n1` [Compound 20, {4-[4-(4-Methyl-piperazin-1-yl)-phenyl]-thiazol-2-yl}-(6-methyl-pyridin-2-yl)-amine], the half-maximal effective concentration (EC50) in data set [1] (setting [6]) came to 840 ± 132 nM.

As for `CN1CCN(c2cccc(Nc3nc(-c4ccc(-c5ccccc5)cc4)cs3)n2)CC1` [Compound 24, 4-([1,1′-Biphenyl]-4-yl)-N-(6-(4-methylpiperazin-1-yl)pyridin-2-yl)thiazol-2-amine], the EC50 in data set [1] (setting [6]) is 1180 ± 206 nM.

As for `COc1ccc(-c2ccc(-c3csc(Nc4cccc(C)n4)n3)cc2)cn1` [Compound 25, {4-[4-(6-Methoxy-pyridin-3-yl)-phenyl]-thiazol-2-yl}-(6-methyl-pyridin-2-yl)-amine], the EC50 in data set [1] (setting [6]) worked out at 140 ± 23 nM.

For `Cc1cccc(Nc2nc(-c3ccc(-c4ccnc(N5CCN(C)CC5)c4)cc3)cs2)n1` [Compound 32, 4-(4-(2-(4-methylpiperazin-1-yl)pyridin-4-yl)phenyl)-N-(6-methylpyridin-2-yl)thiazol-2-amine], the half-life in data set [3] came to 6.8 min. In data set [2], this compound returned a Cmax of 1170 ± 190 nM. Besides, the AUC turned out to be 5.22 ± 0.1 µM·h in data set [2] (AUC (μM *h) Brain) and 1.57 ± 0.15 µM·h in data set [2] (AUC (μM *h) Plasma). The EC50 in data set [1] (setting [6]) stood at 759 ± 374 nM.

Take `COCCOc1cc(-c2ccc(-c3csc(NC(=O)C4CC4)n3)cc2)ccn1` [Compound 44, N-(4-(4-(2-(2-methoxyethoxy)pyridin-4-yl)phenyl)thiazol-2-yl)cyclopropanecarboxamide]: in data set [1] (setting [6]), the EC50 stood at 1320 ± 233 nM.

For `CN(C)c1cccc(Nc2nc(-c3ccc(-c4ccccc4)cc3)cs2)n1` [Compound 23, N2-(4-([1,1′-biphenyl]-4-yl)thiazol-2-yl)-N6,N6-dimethylpyridine-2,6-diamine], the EC50 in data set [1] (setting [6]) was found to be 699 ± 87 nM.

For the compound `COCCOc1ccc(-c2ccc(-c3csc(Nc4cccc(C)n4)n3)cc2)cn1` [Compound 27, 4-(4-(6-(2-methoxyethoxy)pyridin-3-yl)phenyl)-N-(6-methylpyridin-2-yl)thiazol-2-amine], the half-life in data set [3] is more than 60 min. Besides, the Cmax in data set [2] is 970 ± 220 nM. For the same compound, the AUC in data set [2] (AUC (μM *h) Brain) is 3.27 ± 0.44 µM·h; in data set [2] (AUC (μM *h) Plasma), 6.75 ± 0.45 µM·h. Besides, the EC50 in data set [1] (setting [6]) came out at 137 ± 13 nM.

Regarding `Cc1cccc(Nc2nc(-c3ccc(-c4ccccc4)cc3)cs2)n1` [Compound 1, (4-Biphenyl-4-yl-thiazol-2-yl)-(6-methyl-pyridin-2-yl)-amine], in data set [3], the half-life was more than 60 min. In data set [2], this compound gave a Cmax of 2450 ± 740 nM. Also, the EC50 in data set [1] (setting [6]) came out at 1290 ± 122 nM. In data set [5], the “oral bioavailability (%F)” value is reported as approximately 40%.

For the compound `Cc1noc(C)c1-c1ccc(-c2csc(NC(=O)C3CC3)n2)cc1` [Compound 43, Cyclopropanecarboxylic acid {4-[4-(3,5-dimethyl-isoxazol-4-yl)-phenyl]-thiazol-2-yl}-amide], in data set [1] (setting [6]), the EC50 was more than 10000 nM.

Turning to `Cc1cccc(Nc2nc(-c3ccc(-c4cccnc4)cc3)cs2)n1` [Compound 15, (6-Methyl-pyridin-2-yl)-[4-(4-pyridin-3-yl-phenyl)-thiazol-2-yl]-amine], the half-life in data set [3] was more than 60 min. Also, in data set [1], the “fold greater antiprion potency than 1” value is reported as more than 10 fold. In data set [1] (setting [6]), the EC50 was determined as 68 ± 13 nM.

For `Cn1nccc1-c1ccc(-c2csc(NC(=O)C3CC3)n2)cc1` [Compound 42, Cyclopropanecarboxylic acid {4-[4-(2-methyl-2H-pyrazol-3-yl)-phenyl]-thiazol-2-yl}-amide], in data set [1] (setting [6]), the EC50 was more than 10000 nM.

In the case of `Cc1cccc(Nc2nc(-c3ccc(-c4ccc(N5CCN(C)CC5)nc4)cc3)cs2)n1` [Compound 33, 4-(4-(6-(4-Methylpiperazin-1-yl)pyridin-3-yl)phenyl)-N-(6-methylpyridin-2-yl)thiazol-2-amine], the EC50 in data set [1] (setting [6]) is 96 ± 31 nM.

In the case of `Cc1cccc(Nc2nc(-c3ccc(-c4ccnc(OC(C)C)c4)cc3)cs2)n1` [Compound 28, 4-(4-(2-isopropoxypyridin-4-yl)phenyl)-N-(6-methylpyridin-2-yl)thiazol-2-amine], in data set [1] (setting [6]), the EC50 came out at 2840 ± 22 nM.

Regarding `Cc1ncccc1-c1ccc(-c2csc(NC(=O)C3CC3)n2)cc1` [Compound 40, Cyclopropanecarboxylic acid {4-[4-(2-methyl-pyridin-3-yl)-phenyl]-thiazol-2-yl}-amide], in data set [1] (setting [6]), the EC50 is more than 10000 nM.

With `Cc1cccc(Nc2nc(-c3ccc(-c4cccnc4C)cc3)cs2)n1` [Compound 17, (6-Methyl-pyridin-2-yl)-{4-[4-(2-methyl-pyridin-3-yl)-phenyl]-thiazol-2-yl}-amine trifluoro acetic acid salt], the EC50 in data set [1] (setting [6]) is 618 ± 54 nM.

As to `Cc1cccc(Nc2nc(-c3ccc(-c4cc[n+]([O-])cc4)cc3)cs2)n1` [Compound 13, 4-(4-(2-((6-Methylpyridin-2-yl)amino)thiazol-4-yl)phenyl)pyridine 1-oxide], the EC50 in data set [1] (setting [6]) turned out to be 559 ± 120 nM.

Regarding `O=C(Nc1nc(-c2ccc(-c3ccccc3)cc2)cs1)C1CC1` [Compound 34, cyclopropanecarboxylic acid (4-biphenyl-thiazol-2-yl)-amide], the “T1/2” value in data set [4] was more than 60 min. In addition, the EC50 in data set [1] (read-out: EC50 ± SEM) was 248 ± 67 nM.

Source of the values: publication PMC3984044 (ChemMedChem, 2013).
